pIC50: −log10 of the molar value.

In this test the target is T1, c-Met kinase (recombinant c-Met) (Homo sapiens, UniProt P08581).
T1 construct: 0.27 nM recombinant c-Met
T1 sequence (P08581 25-1390): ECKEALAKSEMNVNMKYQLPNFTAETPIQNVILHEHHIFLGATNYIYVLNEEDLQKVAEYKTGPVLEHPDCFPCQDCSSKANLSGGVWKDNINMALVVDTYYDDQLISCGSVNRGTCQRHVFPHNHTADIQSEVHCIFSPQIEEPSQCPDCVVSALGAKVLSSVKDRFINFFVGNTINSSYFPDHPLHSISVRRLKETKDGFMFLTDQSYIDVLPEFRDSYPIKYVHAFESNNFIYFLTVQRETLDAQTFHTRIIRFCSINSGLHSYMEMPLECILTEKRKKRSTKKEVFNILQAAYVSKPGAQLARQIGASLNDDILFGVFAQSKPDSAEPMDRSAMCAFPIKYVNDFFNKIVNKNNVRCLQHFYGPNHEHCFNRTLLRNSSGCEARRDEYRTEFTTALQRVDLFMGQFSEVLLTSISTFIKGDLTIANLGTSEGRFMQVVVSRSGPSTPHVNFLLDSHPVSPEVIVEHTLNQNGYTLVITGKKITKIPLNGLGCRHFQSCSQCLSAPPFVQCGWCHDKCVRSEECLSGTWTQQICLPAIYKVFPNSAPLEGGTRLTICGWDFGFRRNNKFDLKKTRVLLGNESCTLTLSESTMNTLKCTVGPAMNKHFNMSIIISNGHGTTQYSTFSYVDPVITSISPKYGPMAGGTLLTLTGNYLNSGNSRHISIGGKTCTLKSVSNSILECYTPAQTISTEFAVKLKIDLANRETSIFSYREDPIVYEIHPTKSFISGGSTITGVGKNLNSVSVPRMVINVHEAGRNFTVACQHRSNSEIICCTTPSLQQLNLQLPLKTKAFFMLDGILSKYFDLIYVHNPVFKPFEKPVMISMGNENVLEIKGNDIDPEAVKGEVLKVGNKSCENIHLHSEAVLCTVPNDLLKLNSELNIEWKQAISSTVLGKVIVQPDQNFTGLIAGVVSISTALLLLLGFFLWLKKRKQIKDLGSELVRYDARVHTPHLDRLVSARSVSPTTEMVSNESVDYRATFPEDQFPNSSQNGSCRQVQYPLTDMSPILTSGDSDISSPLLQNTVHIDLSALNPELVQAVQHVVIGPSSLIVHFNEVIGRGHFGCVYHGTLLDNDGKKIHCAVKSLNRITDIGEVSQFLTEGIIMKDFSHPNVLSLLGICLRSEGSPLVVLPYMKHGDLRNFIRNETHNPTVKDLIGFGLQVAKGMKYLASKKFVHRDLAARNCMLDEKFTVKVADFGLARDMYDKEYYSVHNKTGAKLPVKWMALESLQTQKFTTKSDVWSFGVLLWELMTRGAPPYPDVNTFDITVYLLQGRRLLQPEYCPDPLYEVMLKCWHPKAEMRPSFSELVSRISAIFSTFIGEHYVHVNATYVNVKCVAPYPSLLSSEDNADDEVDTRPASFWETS
Kind of test: In vitro kinase assay I (homogeneous time-resolved fluorescence tyrosine kinase assay). Type of test: biochemical. A digest of the protocol:
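Biotinylated peptide (0.5 μM) phosphorylated by 0.2 nM recombinant c-Met with 50 μM MgATP, 60 min at room temperature, pH 7.4, 5% DMSO. EDTA stop; HTRF read with Eu-anti-phosphotyrosine antibody and streptavidin-APC. IC50 from 4-parameter logistic fit.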
A word on the pIC50: it is the IC50 on a negative log10 scale, so that one unit is a factor of ten. As for `Cn1cc(-n2ccc(=O)c(Cc3cccc(NC(=O)OCCn4cncn4)c3)n2)cn1` [Example 534, 2-(1H-1,2,4-triazol-1-yl)ethyl (3-{[1-(1-methyl-1H-pyrazol-4-yl)-4-oxo-1,4-dihydropyridazin-3-yl]methyl}phenyl)carbamate], the pIC50 is above 7.00. The same measure for `Cn1cc(-n2ccc(=O)c(Cc3cccc(-c4ncc(C5CCNCC5)cn4)c3)n2)cn1` [Example 200, 1-(1-Methyl-1H-pyrazol-4-yl)-3-{3-[5-(piperidin-4-yl)pyrimidin-2-yl]benzyl}pyridazin-4(1H)-one]: above 7.00; for `Cn1cc(-n2ccc(=O)c(Cc3cccc(NC(=O)OCC4CCCO4)c3)n2)cn1` (racemic) [Example 562, rac-tetrahydrofuran-2-ylmethyl (3-{[1-(1-methyl-1H-pyrazol-4-yl)-4-oxo-1,4-dihydropyridazin-3-yl]methyl}phenyl)carbamate]: above 7.00; for `O=c1ccn(-c2cn[nH]c2)nc1Cc1cccc(-c2ncc(O)cn2)c1` [Example 194, 3-[3-(5-Hydroxypyrimidin-2-yl)benzyl]-1-(1H-pyrazol-4-yl)pyridazin-4(1H)-one]: 6.00 to 7.00. The result for `COCCOc1cnc(-c2cccc(Cc3nn(-c4cnn(C)c4)ccc3=O)c2)nc1` [Example 4, 3-{3-[5-(2-Methoxyethoxy)pyrimidin-2-yl]benzyl}-1-(1-methyl-1H-pyrazol-4-yl)pyridazin-4(1H)-one] reads above 7.00; that for `CCCOC(=O)Nc1cccc(Cc2nn(-c3cnn(CC4CCOCC4)c3)ccc2=O)c1` [Example 101, propyl [3-({4-oxo-1-[1-(tetrahydro-2H-pyran-4-ylmethyl)-1H-pyrazol-4-yl]-1,4-dihydropyridazin-3-yl}methyl)phenyl]carbamate], 6.00 to 7.00. The result for `CC(C)COC(=O)Nc1cccc(Cc2nn(-c3cnn(CCCC(=O)N4CCCC4)c3)ccc2=O)c1` [Example 700, 2-methylpropyl [3-({4-oxo-1-[1-(4-oxo-4-pyrrolidin-1-ylbutyl)-1H-pyrazol-4-yl]-1,4-dihydropyridazin-3-yl}methyl)phenyl] carbamate] reads above 7.00. Take `C[C@@H](O)[C@@H](C)Oc1cnc(-c2cccc(Cc3nn(-c4cnn(C)c4)ccc3=O)c2)nc1` (single isomer, unassigned) [Example 374]: the pIC50 was above 7.00. As for `Cc1cc(COc2cnc(-c3cccc(Cc4nn(-c5cnn(C)c5)ccc4=O)c3)nc2)on1` [Example 286, 3-(3-{5-[(3-methylisoxazol-5-yl)methoxy]pyrimidin-2-yl}benzyl)-1-(1-methyl-1H-pyrazol-4-yl)pyridazin-4(1H)-one], the pIC50 is above 7.00. The result for `CN1CCN(CCOC(=O)Nc2cccc(Cc3nn(-c4cnn(C)c4)ccc3=O)c2)CC1` [Example 530, 2-(4-methylpiperazin-1-yl)ethyl (3-{[1-(1-methyl-1H-pyrazol-4-yl)-4-oxo-1,4-dihydropyridazin-3-yl]methyl}phenyl)carbamate] reads above 7.00.

For `CCn1cnc(-c2cccc(C(C)c3nn(-c4cnn(C)c4)ccc3=O)c2)n1` (single isomer, unassigned) [Example 680, 3-{(1S or R)-1-[3-(1-ethyl-1H-1,2,4-triazol-3-yl)phenyl]ethyl}-1-(1-methyl-1H-pyrazol-4-yl)pyridazin-4(1H)-one], the pIC50 is 6.00 to 7.00. Take `Cn1cc(-n2ccc(=O)c(Cc3cccc(-c4ncc(OCC(=O)N5CCOCC5)cn4)c3)n2)cn1` [Example 280, 1-(1-methyl-1H-pyrazol-4-yl)-3-{3-[5-(2-morpholin-4-yl-2-oxoethoxy)pyrimidin-2-yl]benzyl}pyridazin-4(1H)-one]: the pIC50 is above 7.00. In the case of `O=C(Nc1cccc(Cc2nn(-c3ccc(F)c(F)c3)ccc2=O)c1)OCCN1CCS(=O)(=O)CC1` [Example 528, 2-(1,1-dioxidothio-morpholin-4-yl)ethyl-(3-{[1-(3,4-difluorophenyl)-4-oxo-1,4-dihydropyridazin-3-yl]methyl}phenyl)carbamate], the pIC50 was above 7.00. As for `COCCOC(=O)Nc1cccc(Cc2nn(-c3cc(F)cc(C(N)=O)c3)ccc2=O)c1` [Example 737, 2-methoxyethyl [3-({1-[3-(aminocarbonyl)-5-fluorophenyl]-4-oxo-1,4-dihydropyridazin-3-yl}methyl)phenyl] carbamate], the pIC50 is above 7.00. Turning to `Cn1cc(-n2ccc(=O)c(Cc3cccc(-c4ncc(OCCn5cncn5)cn4)c3)n2)cn1` [Example 271, 1-(1-methyl-1H-pyrazol-4-yl)-3-(3-{5-[2-(1H-1,2,4-triazol-1-yl)ethoxy]pyrimidin-2-yl}benzyl)pyridazin-4(1H)-one], the pIC50 is above 7.00. `CCn1cc(-n2ccc(=O)c(Cc3cccc(-c4ncc(OCCO)cn4)c3)n2)cn1` [Example 307, 1-(1-ethyl-1H-pyrazol-4-yl)-3-{3-[5-(2-hydroxyethoxy)pyrimidin-2-yl]benzyl}pyridazin-4(1H)-one]: the pIC50 is above 7.00. Take `N#Cc1cccc(-n2ccc(=O)c(Cc3cccc(NC(=O)OCCOCC(F)(F)F)c3)n2)c1` [Example 586, 2-(2,2,2-trifluoroethoxy)ethyl (3-{[1-(3-cyanophenyl)-4-oxo-1,4-dihydropyridazin-3-yl]methyl}phenyl)carbamate]: the pIC50 is above 7.00. In the case of `CN(C)C(=O)CCOC(=O)Nc1cccc(Cc2nn(-c3cnn(C)c3)ccc2=O)c1` [Example 545, 3-(dimethylamino)-3-oxopropyl (3-{[1-(1-methyl-1H-pyrazol-4-yl)-4-oxo-1,4-dihydropyridazin-3-yl]methyl}phenyl)carbamate], the pIC50 is above 7.00. The same measure for `COCCOC(=O)Nc1cccc(Cc2nn(-c3cncc(C#N)c3)ccc2=O)c1` [Example 129, 2-methoxyethyl (3-{[1-(5-cyanopyridin-3-yl)-4-oxo-1,4-dihydropyridazin-3-yl]methyl}phenyl)carbamate]: above 7.00. The same measure for `CCn1cnc(-c2cccc(Cc3nn(-c4cccc(C#N)c4)ccc3=O)c2)n1` [Example 84, 3-{3-[3-(1-Ethyl-1H-1,2,4-triazol-3-yl)benzyl]-4-oxopyridazin-1(4H)-yl}benzonitrile]: above 7.00; for `Cn1cc(-n2ccc(=O)c(Cc3cccc(-c4ncc(C(=O)NCC5CCCO5)cn4)c3)n2)cn1` (racemic) [Example 483, rac-2-(3-{[1-(1-methyl-1H-pyrazol-4-yl)-4-oxo-1,4-dihydro-pyridazin-3-yl]methyl}phenyl)-N-(tetrahydro-furan-2-ylmethyl)pyrimidine-5-carboxamide]: above 7.00; for `C[C@H](O)[C@@H](C)Oc1cnc(-c2cccc(Cc3nn(-c4cnn(C)c4)ccc3=O)c2)nc1` (single isomer, unassigned) [Example 376]: above 7.00.

With `CN1CCC(COc2cnc(-c3cccc(Cc4nn(-c5cc(F)cc(C#N)c5)ccc4=O)c3)nc2)CC1` [Example 170, 3-fluoro-5-[3-(3-{5-[(1-methylpiperidin-4-yl)methoxy]pyrimidin-2-yl}benzyl)-4-oxopyridazin-1(4H)-yl]benzonitrile], the pIC50 is above 7.00. The result for `COCCOc1cnc(-c2cccc(C(C)c3nn(-c4cnn(C)c4)ccc3=O)c2)nc1` (single isomer, unassigned) [Example 222, 3-((1S or R)-1-{3-[5-(2-methoxyethoxy)pyrimidin-2-yl]phenyl}ethyl)-1-(1-methyl-1H-pyrazol-4-yl)pyridazin-4(1H)-one] reads 6.00 to 7.00.

Regarding `CCn1cc(-n2ccc(=O)c(Cc3cccc(NC(=O)OCC(C)C)c3)n2)cn1` [Example 110, 2-methylpropyl (3-{[1-(1-ethyl-1H-pyrazol-4-yl)-4-oxo-1,4-dihydropyridazin-3-yl]methyl}phenyl)carbamate], the pIC50 was above 7.00.

Consider `CCn1cc(-n2ccc(=O)c(C(C)c3cccc(-c4ncc(-c5cnn(C)c5)cn4)c3)n2)cn1` (single isomer, unassigned) [Example 235, 1-(1-ethyl-1H-pyrazol-4-yl)-3-[(1R or S)-1-{3-[5-(1-methyl-1H-pyrazol-4-yl)pyrimidin-2-yl]phenyl}ethyl]pyridazin-4(1H)-one], for which the pIC50 is above 7.00. Consider `Cn1cc(-n2ccc(=O)c(Cc3cccc(NC(=O)OCCC4CCOCC4)c3)n2)cn1` [Example 565, 2-(tetrahydro-2H-pyran-4-yl)ethyl (3-{[1-(1-methyl-1H-pyrazol-4-yl)-4-oxo-1,4-dihydropyridazin-3-yl]methyl}phenyl)carbamate], for which the negative logarithm of the IC50 (pIC50) was above 7.00.

Regarding `CCCNC(=O)Nc1cccc(Cc2nn(-c3cnn(C)c3)ccc2=O)c1` [Example 489, 1-(3-{[1-(1-methyl-1H-pyrazol-4-yl)-4-oxo-1,4-dihydropyridazin-3-yl]methyl}phenyl)-3-propylurea], the pIC50 is above 7.00. The result for `Cn1cc(-n2ccc(=O)c(Cc3cccc(NC(=O)OCC(F)(F)CN4CCOCC4)c3)n2)cn1` [Example 525, 2,2-difluoro-3-morpholin-4-ylpropyl (3-{[1-(1-methyl-1H-pyrazol-4-yl)-4-oxo-1,4-dihydropyridazin-3-yl]methyl}phenyl)carbamate] reads above 7.00; that for `COCCOC(=O)Nc1cccc(Cc2nn(-c3cc(F)cc(C#N)c3)ccc2=O)c1` [Example 73, 2-methoxyethyl (3-{[1-(3-cyano-5-fluorophenyl)-4-oxo-1,4-dihydropyridazin-3-yl]methyl}phenyl)carbamate], above 7.00; that for `Cn1cc(-n2ccc(=O)c(Cc3cccc(NC(=O)OCCCN4CCOCC4)c3)n2)cn1` [Example 537, 3-morpholin-4-ylpropyl (3-{[1-(1-methyl-1H-pyrazol-4-yl)-4-oxo-1,4-dihydropyridazin-3-yl]methyl}phenyl)carbamate], above 7.00. Consider `Cn1cc(-n2ccc(=O)c(Cc3ccc4ncccc4c3)n2)cn1` [Example 55, 1-(1-methyl-1H-pyrazol-4-yl)-3-(quinolin-6-ylmethyl)pyridazin-4(1H)-one], for which the negative logarithm of the IC50 (pIC50) is 6.00 to 7.00.

Turning to `Cn1cc(-n2ccc(=O)c(Cc3cccc(-c4ncc(CO)cn4)c3)n2)cn1` [Example 190, 3-{3-[5-(Hydroxymethyl)pyrimidin-2-yl]benzyl}-1-(1-methyl-1H-pyrazol-4-yl)pyridazin-4(1H)-one], the pIC50 is above 7.00.

(Values after patent publication US20120264735A1 (priority 2009, published 2012).)
